Values of other authors as cited in patent US9095555B2, “Cannabinoid formulations” (FULL SPECTRUM LABORATORIES LIMITED, priority 2011, dated 2015).

Experiments:
[1] = prolonged contact with air, oxidation to cannabinol (CBN)

Structure (SMILES): CCCCCc1cc(O)c2c(c1)OC(C)(C)[C@@H]1CCC(C)=C[C@@H]21 [Dronabinol, Δ^9-tetrahydrocannabinol]
- Onset of therapeutic potency (after oral administration): 0.5 to 1 h
- Amount reaching the blood stream by absorption through the digestive system (oral): 10-20 % of the administered dose
- Peak therapeutic effect lasting (post administration, oral): 2 to 4 h
- Oxidation stability [1]: prone to oxidation
